In ChEMBL document CHEMBL2034954, “Synthesis and antimycobacterial activity of novel 1,3-dimethylisocyanurate derivatives” (Eur J Med Chem, 2012):
Converted amounts (≈) assume the structure as drawn. The source made the active and inactive calls. The rule behind the calls is not given here.

What was measured:
[1] = tested on: Mycobacterium tuberculosis; experiment: Antitubercular activity against Mycobacterium tuberculosis H37Rv after […] by radiometric growth assay; type: functional
[2] = tested on: Mycobacterium tuberculosis; experiment: Bacteriostatic activity against Mycobacterium tuberculosis H37Rv at 1 ug/mL assessed as growth index after 3 days by radiometric growth assay (reference value: 210 growth index); type: functional
[3] = tested on: Mycobacterium tuberculosis; experiment: Bacteriostatic activity against Mycobacterium tuberculosis H37Rv at 1 ug/mL assessed as growth index after 4 days by radiometric growth assay (reference value: 210 growth index); type: functional
[4] = tested on: Mycobacterium tuberculosis; experiment: Bacteriostatic activity against Mycobacterium tuberculosis H37Rv at 1 ug/mL assessed as growth index after 5 days by radiometric growth assay (reference value: 210 growth index); type: functional
[5] = tested on: Mycobacterium tuberculosis; experiment: Bacteriostatic activity against Mycobacterium tuberculosis H37Rv at 1 ug/mL assessed as growth index after 7 days by radiometric growth assay (reference value: 210 growth index); type: functional
[6] = tested on: Mycobacterium tuberculosis; experiment: Bacteriostatic activity against Mycobacterium tuberculosis H37Rv at 0.5 ug/mL assessed as growth index after 3 days by radiometric growth assay (reference value: 210 growth index); type: functional
[7] = tested on: Mycobacterium tuberculosis; experiment: Bacteriostatic activity against Mycobacterium tuberculosis H37Rv at 0.5 ug/mL assessed as growth index after 4 days by radiometric growth assay (reference value: 210 growth index); type: functional
[8] = tested on: Mycobacterium tuberculosis; experiment: Bacteriostatic activity against Mycobacterium tuberculosis H37Rv at 0.5 ug/mL assessed as growth index after 5 days by radiometric growth assay (reference value: 210 growth index); type: functional
[9] = tested on: Mycobacterium tuberculosis; experiment: Bacteriostatic activity against Mycobacterium tuberculosis H37Rv at 0.5 ug/mL assessed as growth index after 7 days by radiometric growth assay (reference value: 210 growth index); type: functional
[10] = tested on: Mycobacterium tuberculosis; experiment: Bacteriostatic activity against Mycobacterium tuberculosis H37Rv at 0.5 ug/mL assessed as growth index after 10 days by radiometric growth assay (reference value: 210 growth index); type: functional
[11] = tested on: Mycobacterium tuberculosis; experiment: Bacteriostatic activity against Mycobacterium tuberculosis H37Rv at 0.1 ug/mL assessed as growth index after 3 days by radiometric growth assay (reference value: 210 growth index); type: functional
[12] = tested on: Mycobacterium tuberculosis; experiment: Bacteriostatic activity against Mycobacterium tuberculosis H37Rv at 0.1 ug/mL assessed as growth index after 4 days by radiometric growth assay (reference value: 210 growth index); type: functional
[13] = tested on: Mycobacterium tuberculosis; experiment: Bacteriostatic activity against Mycobacterium tuberculosis H37Rv at 0.1 ug/mL assessed as growth index after 5 days by radiometric growth assay (reference value: 210 growth index); type: functional
[14] = tested on: Mycobacterium tuberculosis; experiment: Bacteriostatic activity against Mycobacterium tuberculosis H37Rv at 0.1 ug/mL assessed as growth index after 7 days by radiometric growth assay (reference value: 210 growth index); type: functional
[15] = tested on: Mycobacterium tuberculosis; experiment: Bacteriostatic activity against Mycobacterium tuberculosis H37Rv at 5 ug/mL assessed as growth index after 3 days by radiometric growth assay (reference value: 210 growth index); type: functional
[16] = tested on: Mycobacterium tuberculosis; experiment: Bacteriostatic activity against Mycobacterium tuberculosis H37Rv at 5 ug/mL assessed as growth index after 4 days by radiometric growth assay (reference value: 210 growth index); type: functional
[17] = tested on: Mycobacterium tuberculosis; experiment: Bacteriostatic activity against Mycobacterium tuberculosis H37Rv at 5 ug/mL assessed as growth index after 5 days by radiometric growth assay (reference value: 210 growth index); type: functional
[18] = tested on: Mycobacterium tuberculosis; experiment: Bacteriostatic activity against Mycobacterium tuberculosis H37Rv at 5 ug/mL assessed as growth index after 7 days by radiometric growth assay (reference value: 210 growth index); type: functional
[19] = tested on: Mycobacterium tuberculosis; experiment: Bacteriostatic activity against Mycobacterium tuberculosis H37Rv at 1 ug/mL assessed as growth index after 10 days by radiometric growth assay (reference value: 210 growth index); type: functional
[20] = tested on: Mycobacterium tuberculosis; experiment: Bacteriostatic activity against Mycobacterium tuberculosis H37Rv at 0.1 ug/mL assessed as growth index after 10 days by radiometric growth assay (reference value: 210 growth index); type: functional
[21] = tested on: Mycobacterium tuberculosis; experiment: Bacteriostatic activity against Mycobacterium tuberculosis H37Rv at 0.05 ug/mL assessed as growth index after 3 days by radiometric growth assay (reference value: 210 growth index); type: functional
[22] = tested on: Mycobacterium tuberculosis; experiment: Bacteriostatic activity against Mycobacterium tuberculosis H37Rv at 0.05 ug/mL assessed as growth index after 4 days by radiometric growth assay (reference value: 210 growth index); type: functional
[23] = tested on: Mycobacterium tuberculosis; experiment: Bacteriostatic activity against Mycobacterium tuberculosis H37Rv at 0.05 ug/mL assessed as growth index after 5 days by radiometric growth assay (reference value: 210 growth index); type: functional
[24] = tested on: Mycobacterium tuberculosis; experiment: Bacteriostatic activity against Mycobacterium tuberculosis H37Rv at 0.05 ug/mL assessed as growth index after 7 days by radiometric growth assay (reference value: 210 growth index); type: functional
[25] = tested on: Mycobacterium tuberculosis; experiment: Antitubercular activity against Mycobacterium tuberculosis H37Rv at 1 ug/mL by radiometric growth assay; type: functional, organism-based
[26] = tested on: Mycobacterium tuberculosis; experiment: Antitubercular activity against Mycobacterium tuberculosis H37Rv at 10 ug/mL by radiometric growth assay; type: functional, organism-based
[27] = tested on: Rattus norvegicus; experiment: Acute toxicity in rat assessed as mortality at 3000 mg/kg, po after 14 days; type: organism-based; set-up: dose 3000 mg/kg, route oral; conditions: in vivo, 336 h
[28] = tested on: Mus musculus; experiment: Acute toxicity in white outbred mouse assessed as mortality at 3000 mg/kg, po after 14 days; type: organism-based; set-up: dose 3000 mg/kg, route oral; conditions: in vivo, 336 h
[29] = tested on: Staphylococcus aureus; experiment: Antibacterial activity against Staphylococcus aureus 209p up to 1 ug/mL after 5 days by broth dilution method; type: functional, organism-based
[30] = tested on: Escherichia coli; experiment: Antibacterial activity against Escherichia coli F-50 up to 1 ug/mL after 5 days by broth dilution method; type: functional, organism-based
[31] = tested on: Bacillus cereus; experiment: Antibacterial activity against Bacillus cereus 8035 up to 1 ug/mL after 5 days by broth dilution method; type: functional, organism-based
[32] = tested on: Aspergillus niger; experiment: Antifungal activity against Aspergillus niger BKMF-1119 up to 1 ug/mL after 14 days by broth dilution method; type: functional, organism-based
[33] = tested on: Trichophyton mentagrophytes; experiment: Antifungal activity against Trichophyton mentagrophytes 1773 up to 1 ug/mL after 14 days by broth dilution method; type: functional, organism-based
[34] = tested on: Candida albicans; experiment: Antifungal activity against Candida albicans 855-653 up to 1 ug/mL after 14 days by broth dilution method; type: functional, organism-based
[35] = tested on: Mycobacterium tuberculosis; experiment: Bacteriostatic activity against Mycobacterium tuberculosis H37Rv at 25 ug/mL assessed as growth index after 3 days by radiometric growth assay (reference value: 210 growth index); type: functional
[36] = tested on: Mycobacterium tuberculosis; experiment: Bacteriostatic activity against Mycobacterium tuberculosis H37Rv at 5 ug/mL assessed as growth index after 10 days by radiometric growth assay (reference value: 210 growth index); type: functional
[37] = tested on: Mycobacterium tuberculosis; experiment: Antitubercular activity against Mycobacterium tuberculosis H37Rv at 40 ug/mL by radiometric growth assay; type: functional, organism-based
[38] = tested on: Mycobacterium tuberculosis; experiment: Antitubercular activity against Mycobacterium tuberculosis H37Rv at 80 ug/mL by radiometric growth assay; type: functional, organism-based

Cn1c(=O)n(C)c(=O)n(CCCCC[S+]([O-])CC(N)=O)c1=O (centres undefined)
MIC [1]: 0.1 µg/mL (≈ 0.301 µM) | Growth_index [2]: 12 | Growth_index [3]: 30 | Growth_index [4]: 30 | Growth_index [5]: >90 | Growth_index [6]: 26 | Growth_index [7]: 37 | Growth_index [8]: 38 | Growth_index [9]: 50 | Growth_index [10]: 60 | Growth_index [11]: 23 | Growth_index [12]: 27 | Growth_index [13]: 30 | Growth_index [14]: >90

Cn1c(=O)n(C)c(=O)n(C[S+]([O-])CC(=O)NN)c1=O (centres undefined)
MIC [1]: 1 µg/mL (≈ 3.43 µM) | Growth_index [2]: 15 | Growth_index [3]: 48 | Growth_index [4]: 78 | Growth_index [5]: >90 | Growth_index [15]: 10 | Growth_index [16]: 17 | Growth_index [17]: 67 | Growth_index [18]: >90

Cn1c(=O)n(C)c(=O)n(CCCCCS(=O)(=O)CC(=O)NN)c1=O
MIC [1]: 0.5 µg/mL (≈ 1.38 µM) | Growth_index [2]: 14 | Growth_index [3]: 50 | Growth_index [4]: 50 | Growth_index [5]: 50 | Growth_index [19]: 50 | Growth_index [6]: 12 | Growth_index [7]: 33 | Growth_index [8]: 50 | Growth_index [9]: >90

Cn1c(=O)n(C)c(=O)n(CCS(=O)(=O)CC(=O)NN)c1=O
MIC [1]: 0.5 µg/mL (≈ 1.56 µM) | Growth_index [2]: 18 | Growth_index [3]: 24 | Growth_index [4]: 33 | Growth_index [5]: 33 | Growth_index [19]: 33 | Growth_index [6]: 25 | Growth_index [7]: 40 | Growth_index [8]: 40 | Growth_index [9]: 40 | Growth_index [10]: 53

Cn1c(=O)n(C)c(=O)n(CCCCC[S+]([O-])CC(=O)NN)c1=O (centres undefined)
MIC [1]: 0.05 µg/mL (≈ 0.144 µM) | Growth_index [11]: 0 | Growth_index [12]: 0 | Growth_index [13]: 1 | Growth_index [14]: 2 | Growth_index [20]: 2 | Growth_index [21]: 15 | Growth_index [22]: 27 | Growth_index [23]: 32 | Growth_index [24]: >90 | Activity [25]: Active | Activity [26]: Active | Activity [27]: Non-toxic | Activity [28]: Non-toxic | Activity [29]: inactive | Activity [30]: inactive | Activity [31]: inactive | Activity [32]: inactive | Activity [33]: inactive | Activity [34]: inactive

Cn1c(=O)n(C)c(=O)n(C[S+]([O-])CC(N)=O)c1=O (centres undefined)
MIC [1]: 0.1 µg/mL (≈ 0.362 µM) | Growth_index [6]: 32 | Growth_index [7]: 50 | Growth_index [8]: 50 | Growth_index [9]: 50 | Growth_index [10]: 50 | Growth_index [11]: 30 | Growth_index [12]: 30 | Growth_index [13]: 36 | Growth_index [14]: >90

CC1COc2c(N3CCN(C)CC3)c(F)cc3c(=O)c(C(=O)O)cn1c23 (centres undefined)
Activity [26]: Active

Cn1c(=O)n(C)c(=O)n(CS(=O)(=O)CC(=O)NN)c1=O
MIC [1]: 0.1 µg/mL (≈ 0.325 µM) | Growth_index [2]: 20 | Growth_index [3]: 20 | Growth_index [5]: 20 | Growth_index [19]: 20 | Growth_index [6]: 25 | Growth_index [7]: 41 | Growth_index [8]: 52 | Growth_index [9]: 52 | Growth_index [10]: 52 | Growth_index [11]: 35 | Growth_index [12]: 43 | Growth_index [13]: 47 | Growth_index [14]: 47 | Growth_index [20]: 47

NNC(=O)c1ccncc1 [ISONIAZID]
MIC [1]: 0.1 µg/mL (≈ 0.729 µM) | Activity [25]: Active | Activity [26]: Active

Cn1c(=O)n(C)c(=O)n(CCS(=O)(=O)CC(N)=O)c1=O
MIC [1]: 25 µg/mL (≈ 81.6 µM) | Growth_index [35]: >90

Cn1c(=O)n(C)c(=O)n(CCCCCC[S+]([O-])CC(N)=O)c1=O (centres undefined)
MIC [1]: 1 µg/mL (≈ 2.89 µM) | Growth_index [2]: 25 | Growth_index [3]: 45 | Growth_index [4]: 47 | Growth_index [5]: 54 | Growth_index [19]: >90 | Growth_index [15]: 15 | Growth_index [16]: 31 | Growth_index [17]: 42 | Growth_index [18]: 66 | Growth_index [36]: 66

Cn1c(=O)n(C)c(=O)n(CCCCCCS(=O)(=O)CC(=O)NN)c1=O
MIC [1]: 0.1 µg/mL (≈ 0.265 µM) | Growth_index [11]: 15 | Growth_index [12]: 27 | Growth_index [13]: 31 | Growth_index [14]: >90

CO[C@H]1/C=C/O[C@@]2(C)Oc3c(C)c(O)c4c(O)c(c(/C=N/N5CCN(C)CC5)c(O)c4c3C2=O)NC(=O)/C(C)=C\C=C\[C@H](C)[C@H](O)[C@@H](C)[C@@H](O)[C@@H](C)[C@H](OC(C)=O)[C@@H]1C
Activity [37]: Active | Activity [38]: Active

Cn1c(=O)n(C)c(=O)n(CC[S+]([O-])CC(N)=O)c1=O (centres undefined)
MIC [1]: 10 µg/mL (≈ 34.4 µM) | Growth_index [35]: >90

Cn1c(=O)n(C)c(=O)n(CCCS(=O)(=O)CC(=O)NN)c1=O
MIC [1]: 1 µg/mL (≈ 2.98 µM) | Growth_index [2]: 5 | Growth_index [3]: 18 | Growth_index [4]: 55 | Growth_index [5]: 55 | Growth_index [19]: 55 | Growth_index [6]: 15 | Growth_index [7]: 30 | Growth_index [8]: >90
